The record followed here is US12209111B2, “Targeting P18 for mTOR-related disorders” (WESTERN UNIVERSITY OF HEALTH SCIENCES, priority 2018, dated 2025).

Entries after “also recorded” stand apart in the source; their conditions may differ. Where a SMILES comes first, the peptide text is derived from it. The star is where a group is joined. Cbz = O=C(OCc1ccccc1)*

In assay [1] the test system is p18. The assay is described as follows: Cultured hippocampal neurons treated with MG132 or BafA, p18 immunofluorescence. Type of assay: cell-based, mouse. The conditions noted are these: 4 h.
Assay [2] relates to p18. Description: Acute hippocampal slices treated with proteasome or lysosome inhibitor, p18 Western blot. The assay is classed as cell-based, mouse. The conditions noted are these: 30 min. On the procedure: Acute Hippocampal Slice Preparation. Adult male mice (2-4-month-old) were anesthetized with gaseous isoflurane and decapitated. Brains were quickly removed and transferred to oxygenated, ice-cold cutting medium (in mM): 124 NaCl, 26 NaHCO3, 10 glucose, 3 KCl, 1.25 KH2PO4, 5 MgSO4, and 3.4 CaCl2. Hippocampal transversal slices (400 μm-thick) were prepared using a McIlwain-type tissue chopper and transferred to i) an interface recording chamber and exposed to a warm, humidified atmosphere of 95% O2/5% CO2 and continuously perfused with oxygenated and preheated (33±0.5° C.) artificial cerebrospinal fluid (aCSF) (in mM) [110 NaCl, 5 KCl, 2.5 CaCl2, 1.5 MgSO4, 1.24 KH2PO4, 10 D-glucose, 27.4 NaHCO3], perfused at 1.4 ml/min (electrophysiology); or ii) a recovery chamber with a modified aCSF medium, containing (in mM): 124 NaCl, 2.5 KCl, 2.5 CaCl2, 1.5 MgSO4, 1.25 NaH2PO4, 24 NaHCO3, 10 D-glucose, and saturated with 95% O2/5% CO2 for 1 h at 37° C. (biochemical assays).
To determine whether Ube3a-mediated regulation of p18 was proteasome- and/or lysosome-dependent, acute hippocampal slices from WT and AS mice were treated with either a proteasome inhibitor, MG132 (10 μM), or a lysosome inhibitor, the vacuolar H+-ATPase (V-ATPase) inhibitor, bafilomycin A1 (BafA, 100 nM), for 30 min.
For orientation: Immunoblotting shows a protein as a band on a membrane.

Assay [3] concerns the target p18-TRPML1 interaction (Homo sapiens, UniProt Q6IAA8). Description: p18-TRPML1 interaction. An excerpt:
(§1) Example 9: Short peptides targeting p18 reduced mTOR activation and promoted peripheral positioning of lysosomes in HELA cells. To test whether blocking p18 ubiquitination and interruption of its interaction with other proteins could disrupt mTOR signaling and lysosome localization and function, we designed two small decoy peptides (TAT-2031 and TAT-151) targeting different domains of p18 containing lysine residues (FIG. 20A); these peptides are conjugated to the cell membrane transduction domain of HIV-1 Tat protein. […] SEQ ID NO:19 corresponds to […], residues 20-31 of p18.

Assay [4] relates to Hela cell. Description: Lysosome positioning in Hela cells (Lysotracker live imaging). The conditions noted are these: for lysosome distribution to the peripheral region of the cell: before and 30 min after treatment (FIG. 20B). The assay is classed as cell-based. As for the experimental part: (§2) (A) Amino acid sequence of human p18 (SEQ ID NO: 23). G2 is a myristoylation site. C3 and C4 are palmitoylation sites. K20, K31, K60, K103, K104, and K151 (red) are potential ubiquitination sites. Two short peptides around K20/31 and K151 (underlined) were respectively conjugated to the cell membrane transduction domain of HIV-1 Tat protein (TAT-2031 and TAT-151). […] Hela cells were stained with Lysotracker (red) and imaged live. Top panel, representative images of Lysotracker before and 30 min after TAT-2031 treatment are shown. Bottom panel, graph represents the distribution of lysosomes relative to the MTOC, normalized to the distance between the MTOC and the cell periphery. (C) Hela cells were incubated with TAT or TAT-2031 (2 μM) for 42 hr. Representative blots and quantification of p18, p-mTOR/mTOR, p-S6K1/S6K1, and p-S6/S6 in whole cell lysates are shown. N=2 independent experiments.
as §1

Assay [5] has as its system mTOR signaling pathway. The assay is described as follows: mTOR signaling in Hela cells treated with p18 short peptides, Western blot. The assay is classed as cell-based. As to conditions: for Effects: mTOR signaling pathway: Hela cells, TAT or TAT-2031 2 μM for 42 hr, ratios p-mTOR/mTOR, p-S6K1/S6K1, p-S6/S6; for mTORC1 activation: Hela cells (FIG. 20C). As for the experimental part:
as §2, §1

For assay [6], the system named is Hela cell. The assay is described as follows: Migration of Hela cell. Type of assay: cell-based.
Assay [7] concerns the target T1, mTOR (Mus musculus, UniProt Q9JLN9).
T1 construct: Pre-incubation of hippocampal slices with MHY1485 (2 μM) for 60 min reestablished TBS-elicited LTP; from tissue; host or cells: acute hippocampal slices from AAV p18 siRNA- or control siRNA-injected WT mice
The assay is described as follows: MHY1485 treatment of hippocampal slices from p18 siRNA-injected WT mice (LTP, Western blot). Type of assay: cell-based. As to conditions: 2 μM, 60 min pre-incubation, to levels of control siRNA-injected WT mice. As for the experimental part: Electrophysiology. After 1.5 h incubation at 33±0.5° C. in the recording chamber, a single glass pipette filled with 2 M NaCl was used to record field EPSPs (fEPSPs) elicited by stimulation of the Schaffer collateral pathway with twisted nichrome wires (single bare wire diameter, 50 μm) placed in CA1 stratum radiatum. Stimulation pulses were generated using a Multichannel Systems Model STG4002 Stimulator (Reutlingen, Germany). Responses were recorded through a differential amplifier (DAM 50, World Precision Instruments, USA) with a […]. Before each experiment, the input/output (I/O) relation was examined by varying the intensity of the stimulation. Paired-pulse facilitation was tested at 20-300 ms interval. Long-term potentiation (LTP) was induced using theta burst stimulation (10 bursts at 5 Hz, each burst consisting of 4 pulses at 100 Hz, with a pulse duration of 0.2 ms). For LTP and paired-pulse facilitation experiments, the stimulation intensity was regulated to a current which elicited a 40% of maximal response. Data were collected and digitized by Clampex, and the slope of fEPSP was analyzed. […] All data are expressed as means±SEM, and statistical significance of differences between means was calculated with appropriate statistical tests as indicated in figure legends.

Chain of p18-TRPML1 interaction (Q9GZU1 whole entry partner, the tested form may be a part): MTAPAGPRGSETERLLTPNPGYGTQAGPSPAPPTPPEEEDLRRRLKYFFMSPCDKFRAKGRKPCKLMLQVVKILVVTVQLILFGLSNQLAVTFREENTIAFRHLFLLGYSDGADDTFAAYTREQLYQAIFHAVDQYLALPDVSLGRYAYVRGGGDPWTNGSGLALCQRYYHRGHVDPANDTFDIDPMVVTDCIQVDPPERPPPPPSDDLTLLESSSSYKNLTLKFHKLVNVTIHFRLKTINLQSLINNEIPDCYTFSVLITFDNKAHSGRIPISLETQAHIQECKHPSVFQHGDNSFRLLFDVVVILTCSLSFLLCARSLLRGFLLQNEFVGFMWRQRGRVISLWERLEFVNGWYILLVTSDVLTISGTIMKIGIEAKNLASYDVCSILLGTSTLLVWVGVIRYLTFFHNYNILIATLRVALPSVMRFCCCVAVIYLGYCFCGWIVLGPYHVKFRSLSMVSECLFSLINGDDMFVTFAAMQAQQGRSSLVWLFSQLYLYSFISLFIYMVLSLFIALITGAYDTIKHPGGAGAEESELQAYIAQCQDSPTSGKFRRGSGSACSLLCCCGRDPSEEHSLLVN
Chain of p18-TRPML1 interaction (Q6IAA8 whole entry, the tested form may be a part): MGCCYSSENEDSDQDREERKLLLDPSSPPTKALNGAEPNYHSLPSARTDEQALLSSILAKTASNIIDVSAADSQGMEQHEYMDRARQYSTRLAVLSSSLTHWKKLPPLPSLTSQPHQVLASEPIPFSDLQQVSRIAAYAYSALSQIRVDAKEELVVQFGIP

With `CC(C)C[C@@H](C=O)NC(=O)[C@H](CC(C)C)NC(=O)[C@H](CC(C)C)NC(=O)OCc1ccccc1` [MG132] (Cbz-Leu-Leu-Leu-aldehyde), in assay [1] (cultured hippocampal neurons from WT mice, 10 μM), the p18 intensity entry was “markedly increased”. Besides, the “p18 levels in AS slices” value in assay [2] (acute hippocampal slices from AS mice, MG132 10 μM) is “marginally”. In addition, in assay [2] (acute hippocampal slices from WT mice, MG132 10 μM or BafA 100 nM), the “p18 levels in WT slices” value is recorded as “significantly increased”.
`CO/C1=C\C(C)=C\[C@@H](C)[C@@H](O)[C@@H](C)C/C(C)=C/C=C/[C@H](OC)[C@@H]([C@@H](C)[C@@H](O)[C@H](C)[C@@]2(O)C[C@@H](O)[C@H](C)[C@@H](C(C)C)O2)OC1=O` [BafA, bafilomycin A1]: the p18 intensity entry in assay [1] (cultured hippocampal neurons from both WT and AS mice, 100 nM) is listed as “only slightly increased”.
As for “TAT: Cell membrane transduction domain of HIV-1 Tat protein, YGRKKRRQRRR; control peptide [reference compound]”, the “Effects: p18-TRPML1 interaction” value in assay [3] is listed as “No”. In addition, in assay [4], the “Effects: Lysosome positioning in Hela cell” value was “No”. The “Effects: mTOR signaling pathway” value in assay [5] is recorded as “No”. Besides, the “Effects: Migration of Hela cell” value in assay [6] is listed as “No”.
For “TAT-2031: p18 residues 20-31 (KLLLDPSSPPTK) conjugated to HIV-1 Tat transduction domain: YGRKKRRQRRRKLLLDPSSPPTK”, the “Effects: p18-TRPML1 interaction” value in assay [3] is “Reduced the”. Besides, the “lysosome distribution to the peripheral region of the cell” value in assay [4] is on record as “increased; also recorded: shifted the distribution of lysosomes toward the cell periphery”; in assay [4] (listed as short decoy peptide around K20/31) it was “increased”. The mTORC1 activation result in assay [5] is given as “significantly reduced”. Further, in assay [6], the “Effects: Migration of Hela cell” value is given as “Slightly reduced”.
Take “TAT-151: Short p18 peptide around K151 conjugated to HIV-1 Tat transduction domain: YGRKKRRQRRRKEELVV”: the “lysosome distribution to the peripheral region of the cell” value in assay [4] is listed as “not”. Besides, in assay [5], the mTORC1 activation entry was “not” and the “Effects: mTOR signaling pathway” value is listed as “Little”.
For the compound `O=[N+]([O-])c1ccc(Nc2nc(N3CCOCC3)nc(N3CCOCC3)n2)cc1` [MHY1485], the “TBS-elicited LTP” value in assay [7] is on record as “reestablished”.
